In ChEMBL document CHEMBL1201862, “PubChem BioAssay data set” (2004):
The source made the active and inactive calls.

Key:
[1] = human group III sPLA2 inhibitors, dose response, biochemical, QFRET, IC50 (AID 743457);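 further: green fluorescence rise as the enzyme cleaves BODIPY PC-A2 in liposomes; potency for inhibition of the enzyme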
[2] = T. cruzi intracellular amastigote growth inhibition, dose response, imaging, CA-I/72 strain, bovine embryo skeletal muscle, dry powder (AID 651885); assay type: functional, cell-based
[3] = system: HeLa; experiment: HeLa cell cytotoxicity, dose response, cytotoxicity control, ATP luminescence, cherry-pick samples (AID 687004); assay type: functional, cell-based; conditions: Homo sapiens
[4] = system: HEK293; experiment: HEK293T cell cytotoxicity, dose response, cytotoxicity control, ATP luminescence, cherry-pick samples (AID 687005); assay type: functional, cell-based; conditions: Homo sapiens;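 further: cells exposed to compound for 48 hours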
[5] = HEK293 Cytotoxicity Assay Measured in Cell-Based System Using Plate Reader - 7071-01_Inhibitor_Dose_CherryPick_Activity_Set2.; assay type: functional
[6] = miR-122 activators in hepatoma reporter cells, dose response, cell-based, Huh7 psiCHECK-miR122, Renilla luciferase, cherry-picked (AID 651956); assay type: functional;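 further: huh7 hepatoma cells stably carrying a psiCHECK-2 miR-122 sensor plasmid; renilla luciferase signal reporting endogenous miR-122 activity after 48 h compound exposure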
[7] = HEK293T cytotoxicity, dose response, cytotoxicity control for miR-122 modulator project, cell-based, activator set, cherry-pick (AID 720690); assay type: functional;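 further: HEK293T human cells scored for general mammalian cytotoxicity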
[8] = Late stage assay provider results from the probe development effort to identify inhibitors of the Plasmodium falciparum M18 Aspartyl Aminopeptidase (M18AAP): radiolabel-based cell-based dose response assay to identify compounds that inhibit P. falciparum growth in RBCs, Set 2..; assay type: functional
[9] = Shn3 3'UTR reporter inhibitors, dose response, cell-based, Clone20 osteoblasts, firefly luciferase, cherry-picked (AID 624132); assay type: functional;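 further: firefly luciferase luminescence from reporter carrying the Shn3 3'UTR in osteoblasts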
[10] = HepG2 cell cytotoxicity, dose response, cytotoxicity control for Shn3 inhibitor project, CellTiter-Glo, cherry-picked (AID 624134); assay type: functional, cell-based
[11] = control 3'UTR Renilla luciferase suppression, dose response, counter-screen for Shn3 inhibitor project, cell-based, Clone20-Shn3RL, cherry-picked (AID 624133); assay type: functional
[12] = target: T1, Protein Wnt-3a (Mus musculus, UniProt P27467); experiment: Wnt3a-driven reporter signaling inhibition, dose response, selectivity assay for Gli-SUFU antagonist project, Wnt-LIGHT cells, luminescence (AID 651570); assay type: functional; conditions: read-out: IC50_Mean;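 further: Wnt-LIGHT reporter cells stimulated with conditioned medium from Wnt3a-producing cells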
[13] = reduction of Shn3 3'UTR firefly luciferase signal, dose response, Schnurri-3 inhibitor project, cell-based, Clone20 osteoblasts, cherry-pick, set 2 (AID 720490); assay type: functional;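 further: actives lower the luminescence signal as inhibitors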
[14] = inhibitors of control Renilla luciferase reporter, dose response, counter-screen for Shn3 3'UTR targeting project, Clone20-Shn3RL cells, dual-Glo, cherry-pick, set 2 (AID 720724); assay type: functional, cell-based; conditions: Dual-Go Shn3RL
[15] = target: Metabotropic glutamate receptor 5 (Rattus norvegicus, UniProt P31424); experiment: Identification of a glycine sulfonamide based non-MPEP site positive allosteric potentiator (PAM) of mGlu5 (calcium_assay).; assay type: functional
[16] = target: T1, Protein Wnt-3a; experiment: SAR analysis of small molecule antagonists of Gli-SUFU in a Wnt3a luminescent reporter assay.; assay type: functional

T1 sequence (P27467 whole entry): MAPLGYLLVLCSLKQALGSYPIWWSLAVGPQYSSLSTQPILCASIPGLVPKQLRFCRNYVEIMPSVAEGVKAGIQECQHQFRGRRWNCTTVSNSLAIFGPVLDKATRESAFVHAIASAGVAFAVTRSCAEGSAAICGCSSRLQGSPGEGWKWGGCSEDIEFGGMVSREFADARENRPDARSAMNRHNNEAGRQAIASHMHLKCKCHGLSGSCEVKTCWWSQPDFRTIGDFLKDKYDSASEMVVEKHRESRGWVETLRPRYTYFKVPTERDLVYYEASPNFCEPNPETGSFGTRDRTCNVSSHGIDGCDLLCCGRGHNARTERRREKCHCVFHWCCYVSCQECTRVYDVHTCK
Metabotropic glutamate receptor 5, sequence (P31424 whole entry): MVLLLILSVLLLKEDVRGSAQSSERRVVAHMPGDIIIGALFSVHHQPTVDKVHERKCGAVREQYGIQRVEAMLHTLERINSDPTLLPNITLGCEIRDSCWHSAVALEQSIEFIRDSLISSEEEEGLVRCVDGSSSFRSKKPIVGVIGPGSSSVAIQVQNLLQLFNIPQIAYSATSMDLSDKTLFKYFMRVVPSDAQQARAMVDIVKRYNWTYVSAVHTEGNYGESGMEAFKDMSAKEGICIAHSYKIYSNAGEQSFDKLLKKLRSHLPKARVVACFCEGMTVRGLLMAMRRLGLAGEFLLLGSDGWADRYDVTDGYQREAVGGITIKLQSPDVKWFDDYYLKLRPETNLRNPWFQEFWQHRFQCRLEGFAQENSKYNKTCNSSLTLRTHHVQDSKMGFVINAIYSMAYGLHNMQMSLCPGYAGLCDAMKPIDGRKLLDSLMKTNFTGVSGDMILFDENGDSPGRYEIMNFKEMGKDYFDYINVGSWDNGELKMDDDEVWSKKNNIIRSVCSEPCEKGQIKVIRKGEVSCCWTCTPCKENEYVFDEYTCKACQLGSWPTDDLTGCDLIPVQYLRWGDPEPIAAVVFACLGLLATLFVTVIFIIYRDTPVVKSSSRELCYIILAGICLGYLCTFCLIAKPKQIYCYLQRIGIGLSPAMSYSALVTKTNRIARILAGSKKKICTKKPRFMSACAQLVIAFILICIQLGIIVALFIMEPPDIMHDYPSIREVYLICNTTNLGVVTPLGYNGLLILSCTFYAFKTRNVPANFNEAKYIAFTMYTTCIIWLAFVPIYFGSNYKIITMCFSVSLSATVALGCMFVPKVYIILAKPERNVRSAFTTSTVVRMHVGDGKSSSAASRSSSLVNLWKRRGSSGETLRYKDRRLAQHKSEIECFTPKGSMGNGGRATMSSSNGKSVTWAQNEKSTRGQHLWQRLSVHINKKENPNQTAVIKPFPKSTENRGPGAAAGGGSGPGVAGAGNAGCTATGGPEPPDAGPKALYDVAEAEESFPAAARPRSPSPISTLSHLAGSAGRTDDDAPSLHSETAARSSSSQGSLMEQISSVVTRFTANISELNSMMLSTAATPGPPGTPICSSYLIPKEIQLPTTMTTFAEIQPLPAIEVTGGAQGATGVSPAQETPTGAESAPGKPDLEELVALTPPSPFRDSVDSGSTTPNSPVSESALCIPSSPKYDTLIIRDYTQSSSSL

For O=C(NNC(=S)Nc1ccc(Br)cc1Cl)c1ccco1, the IC50 [1] was > 122 µM (inactive).

With CC(C)N1C[C@H](C)[C@@H](CN(C)C(=O)OC(C)(C)C)Oc2c(C(=O)Nc3ccncc3)cccc2C1=O the IC50 [2] was > 20 µM (inactive).

In the case of COc1ccc(C#Cc2ccc3c(c2)O[C@@H](CN(C)C(C)=O)[C@@H](C)CN([C@H](C)CO)S3(=O)=O)cc1, the AC50 [3] is reported as > 52 µM (inactive), the AC50 [4] is reported as 17.8 µM (active) and the AC50 [5] is reported as 17.8 µM (active).

With COc1ccc(C#Cc2ccc([C@H]3[C@H](CO)N4CCCCN(C(=O)Nc5ccccc5)C[C@@H]34)cc2)cc1 the AC50 [6] was 6 µM (active) and the AC50 [7] was 10 µM (active).

In the case of COc1ccc(CCNc2c3ccccc3nc3ccccc23)cc1OC, the IC50 [8] is reported as 2.4 µM (active).

For O=C(Cn1cnc2ccccc21)Nc1cccc(S(=O)(=O)N2CCCC2)c1, the AC50 [9] was 2.77 µM (active), the AC50 [10] was 50.5 µM (active) and the AC50 [11] was 10.1 µM (active). For the same molecule, the IC50 [12] was 13.1 µM (active), the AC50 [13] was 2.61 µM (active) and the AC50 [14] was 1.79 µM (active).

Molecule CS(=O)(=O)N(CC(=O)NCC1CC1)c1cc(C(F)(F)F)ccc1Cl has an EC50 [15] of 0.298 µM.

For CCN(CC)c1cc(NC(=O)c2cccc(C#N)c2)ncn1, the IC50 [16] was > 21.8 µM (inactive).
